For 25 compounds, pKa, IC50 and GI50 results are on record in ChEMBL document CHEMBL5032508, “Synthesis of Fluorescent Probes Targeting Tumor-Suppressor Protein FHIT and Identification of Apoptosis-Inducing FHIT Inhibitors” (J Med Chem, 2021).

SMILES strings stand for the structures.

The nature of series [1]: Dissociation constant, pKa of compound. The class given is physicochemical.
Series [2] has as its target T1, Bis(5'-adenosyl)-triphosphatase (Homo sapiens, UniProt P49789). The series is described as follows: Inhibition of recombinant human FHIT incubated for 1hr in presence of tokyogreen-labeled CMP probe by fluorescence based analysis.
Series [3] is described as follows: Growth inhibition of human HCC827-luc cells incubated for 72 hrs by CCK-8 assay. The class given is functional. Background: Tetrazolium assays rely on reduction of a dye to a coloured formazan, in cell work by metabolically active cells.
Series [4] is described as follows: Growth inhibition of human NCI-H460-luc cells incubated for 72 hrs by CCK-8 assay. It counts as functional.
Series [5] concerns the target T1, Bis(5'-adenosyl)-triphosphatase. The series is described as follows: Inhibition of recombinant human FHIT assessed as reduction in AP3Aase activity measured after 45 mins by HPLC analysis.
For series [6] the target is unchanged. The series is described as follows: Inhibition of human FHIT expressed in Escherichia coli BL21(DE3)-RIL cells using AP3A as substrate pretreated for 10 mins followed by substrate addition and measured after 1 hr by HPLC analysis.

As a reminder, the pKa is the pH at which an ionisable group is half protonated. One may read the IC50 as the midpoint of a concentration-inhibition curve. As a reminder, the GI50 is the concentration at which growth is held to half of that of the control. The low end stands for greater sensitivity of the cells, the high end for lower sensitivity of the cells.

T1 sequence (P49789 whole entry): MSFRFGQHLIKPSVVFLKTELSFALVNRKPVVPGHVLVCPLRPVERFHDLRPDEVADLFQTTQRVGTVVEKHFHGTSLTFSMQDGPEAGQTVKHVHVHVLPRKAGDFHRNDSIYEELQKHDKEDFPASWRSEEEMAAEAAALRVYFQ

In the case of `Cc1cc(=O)oc2cc(O)c(F)cc12`, the pKa in series [1] turned out to be 6.3.

In the case of `O=c1cc(C(F)(F)F)c2cc(F)c(O)cc2o1`, the pKa in series [1] was 5.6.

With `Cc1c(OCc2nn[nH]n2)ccc2c3c(c(=O)oc12)CCCC3`, the IC50 in series [2] came out at 5 µM. For the same compound, the GI50 in series [3] and in series [4] was greater than 100 µM in each case.

Regarding `Cc1c(OCc2nn[nH]n2)ccc2c3c(c(=O)oc12)CCC(C)C3` (configuration not stated), the IC50 in series [2] was 4.66 µM.

Take `COc1c(OCC(=O)NO)ccc2c3c(c(=O)oc12)CCCC3`: the IC50 in series [2] was found to be 2.8 µM. For the same compound, the 50% growth inhibitory concentration (GI50) is 5.3 µM in series [3] and 29 µM in series [4].

Consider `O=C(COc1cc2oc(=O)c3c(c2cc1Br)CCCC3)NO`, for which the IC50 in series [2] stood at 18 µM.

For `NNC(=O)c1nn(-c2ccccc2)c(=O)cc1O`, the half-maximal inhibitory concentration (IC50) in series [2] turned out to be 3.98 µM.

On to `CN1C(=O)N/C(=C/c2cccn2-c2ccc(C(=O)O)cc2)C1=O`, for which the IC50 in series [2] stood at 0.77 µM.

For `O=C(Cn1cc([N+](=O)[O-])ccc1=O)NC(=O)NCc1ccco1`, the IC50 in series [2] is 3.43 µM.

For `CCc1c(OCC(=O)NO)ccc2c3c(c(=O)oc12)CCCC3`, the half-maximal inhibitory concentration (IC50) in series [2] came out at 5.3 µM.

For `O=C(O)c1ccc2[nH]c(-c3ccnc(-c4cccnc4)c3)nc2c1`, the 50% inhibitory concentration (IC50) in series [2] was found to be 1.58 µM.

Compound `Cc1ccccc1-c1c2ccc(=O)cc-2oc2cc(O)ccc12` came in with a pKa in series [1] of 6.2.

Take `Cc1c(OCC(=O)NO)ccc2c3c(c(=O)oc12)CCCC3`: the IC50 was determined as 1.9 µM in series [2] and 0.14 µM in series [5]. Further, the GI50 in series [3] was found to be 2.6 µM; in series [4], 15 µM.

In the case of `O=C(COc1ccc2c3c(c(=O)oc2c1Br)CCCC3)NO`, the IC50 is 0.12 µM in series [2] and 0.06 µM in series [5]. In addition, the GI50 came to 0.87 µM in series [3] and 5.9 µM in series [4].

Take `Cc1c(OCC(=O)O)ccc2c3c(c(=O)oc12)CCCC3`: the IC50 in series [2] amounted to 11 µM. Also, the GI50 in series [3] and in series [4] was greater than 100 µM each time.

Regarding `O=C(O)c1ccc(/C=N/NC(=O)c2nc(-c3ccccc3)n(-c3ccccc3)n2)cc1`, the IC50 in series [2] is 3.73 µM.

On to `CC1(C)CC(=O)C2=C(C1)NC1=C(C(=O)c3ccccc31)C2c1ccc(Br)cc1` (configuration not stated), for which the half-inhibitory concentration (IC50) worked out at 0.049 µM in series [6], 8.8 µM in series [2] and 23 µM in series [5]. In addition, the GI50 in series [3] and in series [4] was greater than 10 µM each time.

As to `CC(=O)c1c(OCC(=O)NO)ccc2c3c(c(=O)oc12)CCCC3`, the IC50 in series [2] is 8.1 µM.

On to `Cc1cc(=O)oc2c(C)c(OCC(=O)NO)ccc12`, for which the half-inhibitory concentration (IC50) in series [2] was found to be 41 µM. Also, the 50% growth inhibitory concentration (GI50) stood at 9.5 µM in series [3] and 66 µM in series [4].

With `O=C(COc1cc2oc(=O)c3c(c2cc1Cl)CCCC3)NO`, the IC50 in series [2] was found to be 50 µM.

`NNC(=O)COc1ccc2c3c(c(=O)oc2c1Br)CCCC3`: in series [2], the 50% inhibitory concentration (IC50) came to 4 µM. Also, the GI50 in series [3] and in series [4] was greater than 100 µM each time.

Consider `O=C(COc1ccc2c3c(c(=O)oc2c1)CCCC3)NO`, for which, in series [2], the half-maximal inhibitory concentration (IC50) turned out to be 5.5 µM. The GI50 in series [3] was 0.99 µM; in series [4], 13 µM.

`CCOC(=O)c1c(C)sc(N)c1C(=O)OCC`: the IC50 in series [2] stood at 1.01 µM.

On to `COCC(=O)N1CC[C@@H]2[C@H]1C(=O)NC[C@H](CCC(=O)OC)N2C`, for which the IC50 in series [2] stood at 4.24 µM.

As to `Cc1ccc(C(=O)Nc2ccc(S(=O)(=O)O)c3cc(S(=O)(=O)O)cc(S(=O)(=O)O)c23)cc1NC(=O)c1cccc(NC(=O)Nc2cccc(C(=O)Nc3cc(C(=O)Nc4ccc(S(=O)(=O)O)c5cc(S(=O)(=O)O)cc(S(=O)(=O)O)c45)ccc3C)c2)c1` [SURAMIN], the IC50 in series [2] is 50 µM.
